According to patent US8853258B2, “C-linked hydroxamic acid derivatives useful as antibacterial agents” (Pfizer Inc., priority 2009, dated 2014):
In brackets after ≈: the same amount, converted by molar mass. Where two headings read alike, the source gives them in different places.

How the values were obtained:
Type in all cases: cell-based
[1] = test system: Klebsiella pneumoniae: Ciprofloxacin-resistant isolate, ESBL, clinical isolate (KP-3700); assay: MIC determination (CLSI), KP-3700
Outline: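 Strain KP-3700, a clinical isolate producing extended-spectrum β-lactamases and resistant to ciprofloxacin, was tested. Minimum inhibitory concentrations determined via CLSI dilution methodology (M7-A7; M100-S18).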

[2] = test system: Acinetobacter baumanii/haemolyticus: Multidrug-resistant clinical isolate (AB-3167); assay: MIC determination (CLSI), AB-3167; details: for MIC: Acinetobacter baumannii
Outline: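 Multidrug-resistant clinical isolate AB-3167 (A. baumannii/haemolyticus) tested for minimum inhibitory concentration following CLSI dilution susceptibility standards M7-A7 and M100-S18.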

[3] = test system: Escherichia coli EC-1: VOGEL, mouse virulent; assay: MIC determination (CLSI), EC-1; details: for MIC: Escherichia coli
Outline: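 E. coli Vogel, a mouse-virulent strain (EC-1), was tested. MICs were set by dilution susceptibility testing per CLSI standards M7-A7/M100-S18.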

[4] = test system: Pseudomonas aeruginosa UI-18: Wild-type (PA-7); assay: MIC determination (CLSI), PA-7; details: for MIC: Pseudomonas aeruginosa
Outline: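 Wild-type P. aeruginosa UI-18 tested for minimum inhibitory concentration. Broth/agar dilution following CLSI standards (M7-A7, M100-S18).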

[5] = Acinetobacter baumanii/haemolyticus multidrug-resistant clinical isolate AB-3167
[6] = Escherichia coli EC-1 VOGEL, mouse virulent
[7] = Pseudomonas aeruginosa UI-18 wild-type PA-7

SMILES | KP-3700 MIC [1] | AB-3167 MIC [2, 5] | EC-1 MIC [3, 6] | PA-7 MIC [4, 7] | other results
CC(CCc1ccc(OCCc2ccncc2)cc1)(C(=O)NO)S(C)(=O)=O (centres unmarked) [Example 311, N-hydroxy-2-methyl-2-(methylsulfonyl)-4-[4-(2-pyridin-4-ylethoxy)phenyl]butanamide] | ≧64 mg/L |  |  |  | MIC ([2]; Table 3, read-out: AB-3167 MIC): ≥ 64 µg/mL; MIC ([3]; read-out: EC-1 MIC): ≥ 64 µg/mL; MIC ([4]; Table 3, read-out: PA-7 MIC): 32 µg/mL (≈ 81.5 µM)
CC(CCc1ccc(OCc2nc(-c3cc(F)cc(F)c3)no2)cc1)(C(=O)NO)S(C)(=O)=O (centres unmarked) [Example 255, 4-(4-{[3-(3,5-difluorophenyl)-1,2,4-oxadiazol-5-yl]methoxy}phenyl)-N-hydroxy-2-methyl-2-(methylsulfonyl)butanamide] | ≧64 mg/L |  |  |  | MIC ([2]; Table 3, read-out: AB-3167 MIC): 16 µg/mL (≈ 33.2 µM); MIC ([3]; read-out: EC-1 MIC): 16 µg/mL (≈ 33.2 µM); MIC ([4]; Table 3, read-out: PA-7 MIC): ≥ 64 µg/mL
COc1cccc(F)c1-c1ccc(CCC(C)(C(=O)NO)S(C)(=O)=O)cc1 (centres unmarked) [Example 41] | ≧64 mg/L | ≧64 mg/L | 16 µg/mL | 8 µg/mL | 
CC(CCc1ccc(-c2ccc(C[C@@H](N)C(=O)O)cc2)cc1)(C(=O)NO)S(C)(=O)=O (some centres unmarked) [Example 232] | ≧64 mg/L |  |  |  | AB-3167 MIC ([2]; Acinetobacter baumanii/haemolyticus AB-3167): ≧64 mg/L; EC-1 MIC ([3]; Escherichia coli EC-1): ≧64 mg/L; PA-7 MIC ([4]; Pseudomonas aeruginosa UI-18 (PA-7)): 32 µg/mL
CC(CCc1ccc(-c2ccc(F)c(F)c2)cc1)(C(=O)NO)S(C)(=O)=O (racemic) [Example 75] | 4 µg/mL | 8 µg/mL | 1 µg/mL | 0.5 µg/mL | 
CC(CCc1ccc(OCc2cccc(OC(F)(F)F)c2)cc1)(C(=O)NO)S(C)(=O)=O (centres unmarked) [Example 274, N-hydroxy-2-methyl-2-(methylsulfonyl)-4-(4-{[3-(trifluoromethoxy)benzyl]oxy}phenyl)butanamide] | 16 µg/mL |  |  |  | MIC ([2]; Table 3, read-out: AB-3167 MIC): 16 µg/mL (≈ 34.7 µM); MIC ([3]; read-out: EC-1 MIC): 4 µg/mL (≈ 8.67 µM); MIC ([4]; Table 3, read-out: PA-7 MIC): 16 µg/mL (≈ 34.7 µM)
Cc1csc(-c2ccc(CCC(C)(C(=O)NO)S(C)(=O)=O)cc2)c1 (centres unmarked) [Example 46] | 4 µg/mL | ≧64 mg/L | 2 µg/mL | 2 µg/mL | 
CC(C)Oc1ccc(-c2ccc(CCC(C)(C(=O)NO)S(C)(=O)=O)cc2)cc1 (racemic) [Example 49] | 4 µg/mL | 8 µg/mL | 2 µg/mL | 4 µg/mL | 
CC(CCc1ccc(-c2ccc(C#N)c(O)c2)cc1)(C(=O)NO)S(C)(=O)=O (centres unmarked) [Example 142] | ≧64 mg/L | ≧64 mg/L | ≧64 mg/L | 32 µg/mL | 
CC(CCc1ccc(OC2CCCCC2)cc1)(C(=O)NO)S(C)(=O)=O (centres unmarked) [Example 238, 4-[4-(cyclohexyloxy)phenyl]-N-hydroxy-2-methyl-2-(methylsulfonyl)butanamide] | ≧64 mg/L |  |  |  | MIC ([2]; Table 3, read-out: AB-3167 MIC): 32 µg/mL (≈ 86.6 µM); MIC ([3]; read-out: EC-1 MIC): 32 µg/mL (≈ 86.6 µM); MIC ([4]; Table 3, read-out: PA-7 MIC): 8 µg/mL (≈ 21.7 µM)
CC(CCc1ccc(OCCC2CCCCC2)cc1)(C(=O)NO)S(C)(=O)=O (centres unmarked) [Example 314, 4-[4-(2-cyclohexylethoxy)phenyl]-N-hydroxy-2-methyl-2-(methylsulfonyl)butanamide] | ≧64 mg/L |  |  |  | MIC ([2]; Table 3, read-out: AB-3167 MIC): 2 µg/mL (≈ 5.03 µM); MIC ([3]; read-out: EC-1 MIC): 16 µg/mL (≈ 40.2 µM); MIC ([4]; Table 3, read-out: PA-7 MIC): 16 µg/mL (≈ 40.2 µM)
CC(CCc1ccc(-c2ccc(CCN)cc2)cc1)(C(=O)NO)S(C)(=O)=O (centres unmarked) [Example 114] | ≧64 mg/L | ≧64 mg/L | ≧64 mg/L | 16 µg/mL | 
COc1ncccc1-c1ccc(CCC(C)(C(=O)NO)S(C)(=O)=O)cc1 (racemic) [Example 76] | ≧64 mg/L | ≧64 mg/L | 32 µg/mL | 16 µg/mL | 
CC(CCc1ccc(-c2ccoc2)cc1)(C(=O)NO)S(C)(=O)=O (centres unmarked) [Example 95] | 16 µg/mL | ≧64 mg/L | 16 µg/mL | 4 µg/mL | 
CC(CCc1ccc(OCc2nc(-c3cccc(F)c3F)no2)cc1)(C(=O)NO)S(C)(=O)=O (centres unmarked) [Example 253, 4-(4-{[3-(2,3-difluorophenyl)-1,2,4-oxadiazol-5-yl]methoxy}phenyl)-N-hydroxy-2-methyl-2-(methylsulfonyl)butanamide] | ≧64 mg/L |  |  |  | MIC ([2]; Table 3, read-out: AB-3167 MIC): ≥ 64 µg/mL; MIC ([3]; read-out: EC-1 MIC): 8 µg/mL (≈ 16.6 µM); MIC ([4]; Table 3, read-out: PA-7 MIC): 32 µg/mL (≈ 66.5 µM)
CC(CCc1ccc(-n2cccn2)cc1)(C(=O)NO)S(C)(=O)=O (centres unmarked) [Example 11, N-Hydroxy-2-methyl-2-(methylsulfonyl)-4-[4-(1H-pyrazol-1-yl)phenyl]butanamide] | ≧64 mg/L |  |  |  | MIC ([2]; Table 1, MIC, read-out: AB-3167 (MIC)): ≥ 64 µg/mL; MIC ([3]; read-out: EC-1: (MIC)): ≥ 64 µg/mL; MIC ([4]; Table 1, MIC, read-out: PA-7 (MIC)): 16 µg/mL (≈ 47.4 µM)
CC(CCc1ccc(OCCC2CCCC2)cc1)(C(=O)NO)S(C)(=O)=O (centres unmarked) [Example 312, 4-[4-(2-cyclopentylethoxy)phenyl]-N-hydroxy-2-methyl-2-(methylsulfonyl)butanamide] | ≧64 mg/L |  |  |  | MIC ([2]; Table 3, read-out: AB-3167 MIC): 2 µg/mL (≈ 5.21 µM); MIC ([3]; read-out: EC-1 MIC): 8 µg/mL (≈ 20.9 µM); MIC ([4]; Table 3, read-out: PA-7 MIC): 8 µg/mL (≈ 20.9 µM)
Cc1cccc(COc2ccc(CCC(C)(C(=O)NO)S(C)(=O)=O)cc2)c1F (centres unmarked) [Example 262, 4-{4-[(2-fluoro-3-methylbenzyl)oxy]phenyl}-N-hydroxy-2-methyl-2-(methylsulfonyl)butanamide] | 8 µg/mL |  |  |  | MIC ([2]; Table 3, read-out: AB-3167 MIC): 16 µg/mL (≈ 39.1 µM); MIC ([3]; read-out: EC-1 MIC): 1 µg/mL (≈ 2.44 µM); MIC ([4]; Table 3, read-out: PA-7 MIC): 2 µg/mL (≈ 4.88 µM)
CC(CCc1ccc(-c2cnc(N3CCOCC3)nc2)cc1)(C(=O)NO)S(C)(=O)=O (centres unmarked) [Example 39] | 32 µg/mL | ≧64 mg/L | 4 µg/mL | ≧64 mg/L | 
C[C@@](CCc1ccc(-c2ccc(F)cc2)cc1)(C(=O)NO)S(C)(=O)=O [Example 110] | 4 µg/mL | 8 µg/mL | 2 µg/mL | 0.25 µg/mL | 
Cc1cc(CCO)ccc1-c1ccc(CCC(C)(C(=O)NO)S(C)(=O)=O)cc1 (centres unmarked) [Example 156] | 8 µg/mL | 16 µg/mL | 16 µg/mL | 8 µg/mL | 
COc1ccc(-c2ccc(CCC(C)(C(=O)NO)S(C)(=O)=O)cc2)cc1OC (centres unmarked) [Example 33] | 32 µg/mL | ≧64 mg/L | 16 µg/mL | 16 µg/mL | 
CC(CCc1ccc(-c2ccc(C#N)cc2)nc1)(C(=O)NO)S(C)(=O)=O (centres unmarked) [Example 122] | ≧64 mg/L | ≧64 mg/L | 16 µg/mL | 8 µg/mL | 
CC(CCc1ccc(-c2ccc(F)cc2F)cc1)(C(=O)NO)S(C)(=O)=O (racemic) [Example 53] | 4 µg/mL | 8 µg/mL | 1 µg/mL | 0.5 µg/mL | 
CC(CCc1ccc(-c2cc(F)c(OCCO)c(F)c2)cc1)(C(=O)NO)S(C)(=O)=O (centres unmarked) [Example 150] | 8 µg/mL | 32 µg/mL | 2 µg/mL | 2 µg/mL | 
COc1cccc(-c2ccc(CCC(C)(C(=O)NO)S(C)(=O)=O)cc2)c1F (racemic) [Example 89] | 1 µg/mL | 16 µg/mL | 0.5 µg/mL | 0.5 µg/mL | 
CC(C)c1cccc(-c2ccc(CCC(C)(C(=O)NO)S(C)(=O)=O)cc2)c1 (centres unmarked) [Example 43] | 16 µg/mL | 4 µg/mL | 4 µg/mL | 8 µg/mL | 
COc1ccc(-c2ccc(CCC(C)(C(=O)NO)S(C)(=O)=O)cn2)cc1 (centres unmarked) [Example 120] | 16 µg/mL | ≧64 mg/L | 4 µg/mL | 8 µg/mL | 
CC(CCc1ccc(-c2ccc(OCCO)cc2F)cc1)(C(=O)NO)S(C)(=O)=O (centres unmarked) [Example 144] | 4 µg/mL | ≧64 mg/L | 1 µg/mL | 1 µg/mL | 
